Experimental data taken from publication PMC12799219, “In vitro and in vivo studies on the activity and selectivity of butoconazole in experimental infection by Trypanosoma cruzi” (Memórias do Instituto Oswaldo Cruz, 2026).
Several values for one entry are separate records, joined by “and”; a condition that tells them apart may be missing. Equal values may be shown once. Entries after “also recorded” stand apart in the source; their conditions may differ. Read-outs that look alike come from different tables or passages of the source.

Columns and labels:
[1] = system: T. cruzi intracellular forms (Tulahuen strain); test: In vitro activity on intracellular forms of T. cruzi in L929 cells (β-galactosidase/CPRG); format: cell-based, Trypanosoma cruzi; conditions: for EC90: read-out: Activity against T. cruzi intracellular forms EC90
Experimental: In vitro activity on intracellular forms of T. cruzi - L929 cells previously seeded in 96-well plates (4 x 10^3 cells/well) were infected (ratio of 10 parasites:1 host cell) for 2 h with trypomastigote forms (Tulahuen strain transfected with the β-galactosidase gene, DTU VI).

[2] = system: H9C2 mammalian cells; test: cells; format: cell-based; conditions: for EC50: Rattus norvegicus, H9c2, 24 h, read-out: Toxicity on H9C2 mammalian cells pEC50 (converted)
Experimental: Mammalian cell cultures - L929 fibroblast lineage were cultured in Roswell Park Memorial Institute 1640 medium without phenol red (RPMI - Sigma-Aldrich, St. Louis, MO, USA), supplemented with 10% foetal bovine serum (FBS - Cultilab - SP - Brazil) and 2 mM glutamine (Sigma-Aldrich, St. Louis, MO, USA) with pH 7.2 - 7.4, as previously reported.[21] H9C2, cardiomyoblast cultures, were maintained in Dulbecco’s Modified Eagle’s Medium (DMEM) high glucose (4500 mg/L) medium supplemented (Sigma-Aldrich, St. Louis, MO, USA) with 10% FBS (Cultilab - SP -Brazil), 2 mM glutamine (Sigma-Aldrich, St. Louis, MO, USA) and 100 μg/mL penicillin/streptomycin (Sigma-Aldrich, St. Louis, MO, USA).[22] Both cell cultures maintained at 37 °C under an atmosphere of 5% CO2, with weekly dissociation protocol using 0.01% trypsin.
Cytotoxicity assay - The toxicity of the compounds was evaluated on two mammalian cell lines (L929 and H9C2), as reported.[21] The cells were seeded in 96-well plates (4 x 10^3 cells/well - for L929; 25x10^3 cells/well - for H9C2) and incubated at 37 °C and 5% CO2. The L929 cultures were kept under treatment for 96 and 168 h with a serial dilution (1:2) of the compounds (up to 400 μM). After the treatment periods, the AlamarBlue® reagent (Thermo Fisher Scientific Inc) was added and incubated for 24 h. The H9C2 cultures were also treated in serial dilution up to 200 μM for 24 h. PrestoBlue® reagent (Thermo Fisher Scientific Inc) was added to the cultures and incubated for 3 h. All plates were analysed in the spectrophotometer SpectraMaxM3 (570 and 600 nm) and LC50 values (concentration capable of inducing loss of viability in 50% of the cells) determined.[21] All assays were done at least twice, in triplicates.

[3] = system: T. cruzi (Y strain) blood trypomastigotes; test: In vitro activity on bloodstream trypomastigotes; format: cell-based, Trypanosoma cruzi; conditions: for EC90 / EC50: Trypanosoma cruzi
Experimental: In vitro activity on bloodstream trypomastigotes - Swiss male mice were inoculated with 5 x 10^4 bloodstream trypomastigotes (BT, Y strain, DTU II) and at the parasitaemia peak [8th post-infection (dpi)], euthanised using 3% isoflurane and blood samples obtained by cardiac puncture (CEUA FIOCRUZ L038-2017). Then, 100 μL of parasite suspension (10^7/mL in RPMI medium + 5% FBS) was added to the same volume of RPMI + 5% FBS containing treatment with BTZ (serially diluted - 1:2) at twice the desired final concentration. After 2 and 24 h at 37 °C, the number of live parasites was determined by light microscopy quantification using a Neubauer chamber.[6] Untreated controls were carried out with parasites kept under the same conditions and BZ was run in parallel. The activity of the compounds was expressed by the EC50 and EC90 values. The assays were done at least twice, in duplicate.

[4] = system: T. cruzi intracellular forms (Tulahuen strain) in L929 cell lines; test: Washout assay in L929 cultures infected with T. cruzi; format: cell-based, Trypanosoma cruzi; conditions: 10 µM for 168 h, then 168 h drug-free
Experimental: Washout assays in L929 cultures infected with T. cruzi - L929 cultures were infected with Tulahuen strain as above described and incubated or not for 168 h with 10 µM of BZ and BTZ (37 °C/5% CO2). RPMI culture medium (containing the tested compounds) was replaced every 72 h. Then, the cultures were rinsed with 0.1M PBS, and the drug-free culture medium added for another 168 h, replacing it every 72 h. The number of parasites released into the supernatant and of intracellular forms were analysed by light microscopy and by spectrophotometry (570 nm) after adding CPRG, respectively. The results were expressed as the percentage of reduction in parasite growth compared to untreated cells. BZ was used as a positive treatment control.[25] The data results from two independent experiments done in at least triplicate.

[5] = system: T. cruzi bloodstream trypomastigotes (Y strain); test: Mouse model of acute T. cruzi infection: parasitaemia and mortality; format: in vivo, Swiss male mice; conditions: for mortality (cumulative death) / parasitaemia peak decline at the 8 dpi: assay 1: BZ 25 mg/kg/day p.o., BTZ 45.61 mg/kg/day i.p.; for mortality (cumulative death) / parasitaemia reduction: five days; for parasitaemia peak decline at the 8 dpi: five days from 5 dpi; for animal mortality: assay 2, lower doses: BZ 10 mg/kg/day p.o.
Experimental: In vivo analysis in a mouse model of acute T. cruzi infection - Swiss male mice (18 - 20 g) were obtained from the Institute of Sciences and Technologies in Biomodels (ICTB-FIOCRUZ), housed with a maximum of 5 animals per cage and kept in a specific pathogen-free (SPF) room at 20 - 24 °C under a 12 h light/dark cycle. All animals received sterilised water and food ad libitum. The animals were acclimatised for seven days before the experiments. For a proof-of-concept study, animals were infected by i.p (1x10^4) with bloodstream trypomastigotes (Y strain). The drugs administration started at the onset of parasitaemia (5th day dpi), only using mice with detectable parasitaemia.[19] ^, [28] Control mice groups were age-matched and housed under identical conditions. The following experimental groups were used ≥ 3 mice per group: untreated (infected vehicle-treated control) and treated orally (p.o) with BZ (10, 25 and 100 mg/kg/day), corresponding to suboptimal and optimal doses of the reference drug; infected and treated with BTZ (i.p) using concentrations adjusted to be equimolar to BZ doses (18.24, 45.61 and 182.44 mg/kg/day). Also, the following combo was administered: BZ (10 mg/kg/day/p.o) + BTZ (18.24 mg/kg/day/i.p). The animals received the drugs once a day for five consecutive days. A […] optimal dose of BZ (10 mg/kg/day) was chosen to clearly observe any benefit of its association with BTZ. The i.p. route for BTZ was chosen due to its low aqueous solubility.
Parasitaemia and mortality rate - Parasitaemia was performed by collecting 5 μL of the blood from the tail’s vein, disposing it on a slide and covering with coverslips (18 x 18 mm) for direct counting of parasites observed in 50 fields under light microscope (40X magnification).[19] ^, [28] The mortality was followed daily up to 30 days after the end of treatment and expressed as a percentage of cumulative mortality (% CM).[19] ^, [27] In vivo assays were conducted with n = 5 per group.

[6] = Trypanosoma cruzi, TULAHUEN, L929, 96 h, read-out: Activity against T. cruzi intracellular forms EC50, Tulahuen strain in L929, 96 h
[7] = 2 h, read-out: Activity on T. cruzi (Y strain) blood trypomastigotes EC50
[8] = 24 h, read-out: Activity on T. cruzi (Y strain) blood trypomastigotes EC50
[9] = 24 h, read-out: Activity on T. cruzi (Y strain) blood trypomastigotes pEC50 (converted)
[10] = assay 2, higher doses: BZ 100 mg/kg/day p.o., BTZ 182.44 mg/kg/day i.p.
[11] = assay 2, lowest doses: BZ 10 mg/kg/day p.o., BTZ 18.24 mg/kg/day i.p.

Clc1ccc(CCC(Cn2ccnc2)Sc2c(Cl)cccc2Cl)cc1 (stereo not shown) [BTZ, butoconazole]
EC50 ([1]; Trypanosoma cruzi, TULAHUEN, L929, 96 h, Tulahuen strain in L929, 96 h, read-out: Activity against T. cruzi intracellular forms pEC50 (converted)): 0.0708 µM | EC50 [1, 6]: 0.075 µM | EC90 ([1]; Trypanosoma cruzi, Tulahuen strain in L929, 96 h): 3.88 ± 0.45 µM | EC50 ([1]; Tulahuen strain in L929, 96 h, read-out: Activity against T. cruzi intracellular forms EC50): 0.07 ± 0.02 µM | EC50 [2]: 37.2 µM | CC50 ([2]; rat, 24 h): 36.36 ± 0.25 µM | fold less potent than BZ on bloodstream trypomastigotes ([3]; 24 h, EC50 versus BZ): 2.3 fold | EC90 ([3]; 2 h): > 20 µM | EC50 [3, 7]: > 20 µM | EC90 ([3]; 24 h): 18.64 ± 0.11 µM | EC50 [3, 8]: 13.8 ± 0.7 µM | EC50 [3, 9]: 14.1 µM | Washout: reduction in the number of intracellular forms [4]: > 96% and 96 - 98% and 96 ± 4% | Washout: reduction in the number of released parasites [4]: 100 ± 0% | mortality (cumulative death) [5]: 40% | parasitaemia peak decline at the 8 dpi [5]: 50% | animal survival [5, 10]: 100% | parasitaemia reduction [5, 10]: 63% | animal mortality ([5]; BTZ 18.24 mg/kg/day i.p.): 75% | parasitaemia reduction [5, 11]: only slightly

O=C(Cn1ccnc1[N+](=O)[O-])NCc1ccccc1 [BZ, benznidazole]
EC50 [1, 6]: 1.73 ± 0.16 µM | EC90 ([1]; Trypanosoma cruzi, TULAHUEN, L929, 96 h): 7.65 ± 1.69 µM | EC50 ([1]; Trypanosoma cruzi, TULAHUEN, L929, 96 h, read-out: Activity against T. cruzi intracellular forms pEC50, Tulahuen strain in L929, 96 h (converted)): 1.74 µM | EC50 [2]: > 200 µM | EC90 ([3]; 2 h): > 20 µM | EC50 [3, 7]: > 20 µM | EC90 ([3]; 24 h): 17.5 ± 0.65 µM | EC50 [3, 8]: 5.93 ± 0.15 µM | EC50 [3, 9]: 6.03 µM | Washout: reduction in the number of intracellular forms [4]: 98.6 ± 1.4% | Washout: reduction in the number of released parasites [4]: 100 ± 0% | mortality (cumulative death) [5]: 0% | parasitaemia peak decline at the 8 dpi [5]: 93% | animal survival [5, 10]: 100% | parasitaemia reduction [5, 10]: suppressed the peak; also recorded: fully suppressed parasitaemia | animal mortality ([5]; BTZ 18.24 mg/kg/day i.p.): 100% | parasitaemia reduction [5, 11]: only slightly
